Test results as given in publication PMC10716780, “The multistep oxidation of cholesterol to pregnenolone by human cytochrome P450 11A1 is highly processive” (The Journal of Biological Chemistry, 2023).

Target: T1, P450 11A1 (CYP11A1) (Homo sapiens, UniProt P05108)
T1 construct: M A S T R S P R P F N E I P S P G D N; Met-Ala (N-terminal start residues in place of the transit peptide and Ile40) (N); made in house; host or cells: E. coli (P450 11A1 in C41(DE3); Adx and AdR in E. coli)
T1 sequence (P05108 41-521 limits assumed): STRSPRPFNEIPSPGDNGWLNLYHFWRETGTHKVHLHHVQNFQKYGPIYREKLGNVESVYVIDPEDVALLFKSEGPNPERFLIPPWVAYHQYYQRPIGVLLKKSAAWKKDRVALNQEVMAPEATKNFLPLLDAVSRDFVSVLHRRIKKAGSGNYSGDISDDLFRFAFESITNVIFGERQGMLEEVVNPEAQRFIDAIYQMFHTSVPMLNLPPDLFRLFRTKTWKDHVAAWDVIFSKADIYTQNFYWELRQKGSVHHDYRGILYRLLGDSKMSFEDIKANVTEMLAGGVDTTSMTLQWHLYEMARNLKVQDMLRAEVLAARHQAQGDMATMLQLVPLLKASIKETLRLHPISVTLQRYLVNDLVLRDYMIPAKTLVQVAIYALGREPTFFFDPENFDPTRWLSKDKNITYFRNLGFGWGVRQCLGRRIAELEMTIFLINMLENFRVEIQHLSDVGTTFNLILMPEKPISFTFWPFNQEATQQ
T1 sequence (P00257 59-186 partner): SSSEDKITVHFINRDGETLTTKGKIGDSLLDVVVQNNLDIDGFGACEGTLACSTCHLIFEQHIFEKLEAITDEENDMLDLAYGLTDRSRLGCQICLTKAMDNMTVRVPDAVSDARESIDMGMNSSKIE
Assay: Kinetic isotope effect assay, disappearance of d0- and d3-cholesterol under single-turnover conditions
Assay type: biochemical
Conditions: human, pH 7.4; 5 μM P450, 5 μM sterol, low Adx single-turnover; read-out: sterol half-life (t1/2) (converted)
Method: P450 11A1 incubations were performed under (low Adx) single-turnover conditions (5 μM P450, 5 μM cholesterol; see Experimental procedures) with d0- (authentic, unlabeled) and d3-cholesterol, and the disappearance of each was monitored by LC-atmospheric pressure chemical ionization-MS (m/z 369.3516 and 372.3705, respectively). In theory, if C-H bond breaking were rate-limiting in the initial hydroxylation then the rate of d3-cholesterol consumption would be slower relative to the d0 compound due to the increased strength of a C-D bond.
The kinetic isotope experiment was designed similarly to the benchtop experiment described above, but with some modifications. P450 11A1 (5 μM) was reconstituted with the redox partners AdR (10 μM) and Adx (5 μM) on ice (10 min) prior to dilution in potassium Hepes (50 mM, pH 7.4) and H2O and addition of d3-cholesterol substrate (5 μM). […]
Samples (held at 4 °C) were injected (10 μl) using a Waters Acquity UPLC system on a Acquity BEH octadecylsilane (C18) 2.1 mm × 50 mm (1.7 μm) UPLC column (held at 25 °C) with a flow rate of 0.5 ml min^−1 using an isocratic mobile phase of CH3CN (only). The column eluate was subjected to atmospheric pressure chemical ionization and analyzed using a Thermo Fisher Scientific LTQ XL Orbitrap mass spectrometer instrument operating in positive mode, scanning from m/z 100 to 500, with a resolution setting of 120,000. […]

With `CC(C)CCC[C@@H](C)[C@H]1CC[C@H]2[C@@H]3CC=C4C[C@@H](O)CC[C@]4(C)[C@H]3CC[C@]12C` [Cholesterol] the half-life at 5 μM was 20 s.
